Experimental data published in the METLIN SMRT retention time set (Domingo-Almenara et al. 2019).

assay: gradient 5% acetonitrile 3 min, to 50% in 2 min, to 85% in 15 min, held 3 min, 100 µL/min; conditions: column: Zorbax Extend-C18 2.1 x 50 mm; eluents: water / acetonitrile, 0.1% formic acid
Procedure, shortened: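 In both positive and negative ionization mode, a quadrupole time-of-flight mass spectrometer coupled to HPLC analyzed pure standards run in mixtures of ~100 molecules. The Zorbax Extend-C18 column (2.1 × 50 mm, 1.8 μm) was operated at 100 μL/min with water and acetonitrile, each containing 0.1% formic acid. The dead volume was 40 μL and the dwell volume 900 μL. Retention time came from adduct peaks that were computationally picked and individually inspected by hand.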

SMILES | RP-LC retention time [s]
COCCn1nc2n(c1=O)CCC1(CC2)CCN(C(=O)C2CCCCCC2)CC1 | 710
CCSC1=NCCN1C(=O)C(C)(C)Oc1ccc(Cl)cc1 | 770
CCn1c(C(=O)NCc2ccccc2Cl)cc2sc(Cl)cc21 | 1190
Cn1c(=O)c2c(nc(Cc3ccc(N)cc3)n2C)n(C)c1=O | 621
Cc1cc(-c2ccc(C)c(S(=O)(=O)Nc3ccc(Cl)cc3)c2)n[nH]1 | 898
O=C(CC1CCCC1)N1[C@H]2CC[C@@H]1c1cnc(-c3ccccc3)nc1C2 | 1000
CCn1cc(-c2nc(C)c(C(=O)Nc3cccc(OC)c3)s2)c2cccnc21 | 983
O=C(Nc1ccc(F)c(F)c1)c1c(O)c2cccnc2n(-c2cccc(F)c2)c1=O | 1260
CCOc1ccc(CCNC(=O)CN2C(=O)CSc3cccn3-c3ccccc32)cc1OCC | 939
Cc1cccc(C)c1NC(=O)N1CCCC1c1nncn1C1CCCC1 (configuration not stated) | 722
CC(C)c1ccc(Nc2c(-c3ccc(N(C)C)cc3)nc3ncccn23)cc1 | 820
COc1ccc(Br)c2c1-c1nc(NC(=O)c3ccccc3F)sc1C2 | 1130
CCCc1nc(-c2c(C)cc(C)nc2NC(=O)c2ccccc2F)no1 | 883
Cc1cc(-c2nnc(C3CCC3)o2)c(C)n1CC(=O)NCc1ccc(F)cc1Cl | 899
CS(=O)(=O)N1CCC(C(=O)NC2CCCCCC2)Oc2ccc(Cl)cc21 (configuration not stated) | 991
COc1ccc(NC2=NS(=O)(=O)C(c3ccccc3)=C2C)c(OC)c1 | 910
COc1cc(-c2ccnc3nc(Cc4ccc(F)cc4)nn23)cc(OC)c1OC | 695
CCN(CC)CCNC(=O)CCc1cc2cc(C)ccc2[nH]c1=O | 587
COc1ccc(NC(=O)NC(C(=O)N2CCc3ccccc32)C(C)C)c(OC)c1 (configuration not stated) | 934
CCCCn1c(=O)c2ccccc2n(Cc2nc(-c3ccccc3Br)no2)c1=O | 1170
CCOC(=O)c1ccccc1NC(=O)Cn1c(-c2ccc(F)cc2)nc(C)cc1=O | 1320

SMILES | RP-LC retention time [s]
COc1ccc(OCc2nc(-c3ccc(NS(=O)(=O)c4cccs4)cc3)no2)cc1 | 1040
CNC(=O)Nc1ccc(C2(C(=O)NC3CCCC3)CCC2)cc1 | 692
CC(=O)Oc1ccc2c(=O)c(Oc3ccc([N+](=O)[O-])cc3)c(C)oc2c1 | 854
COc1cc2c(cc1CNC(=O)COc1ccc(Br)cc1)OCCCO2 | 957
O=C(COc1ccc(F)cc1)N1CCOc2ccc(N3CCOCC3)cc2C1 | 787
O=c1ccn(-c2ccc(Cl)cc2)nc1-c1nc(-c2ccc3c(c2)OCO3)no1 | 913
COc1ccc2ncc(S(=O)(=O)c3ccc(C)c(Cl)c3)c(OC)c2c1 | 1100
COc1cccc(-c2cc(N3CCN(C(=O)NC(C)C)CC3)ncn2)c1 | 612
O=C(Nc1ccc(F)cc1)c1nnc(C(=O)N2CCC(C(=O)NCc3ccccn3)CC2)s1 | 909
CCOC(=O)CCNC(=O)N1[C@H]2CC[C@@H]1c1cnc(-c3ccccc3)nc1C2 | 794
COc1ccccc1CCNC(=O)Cn1ccc2ccccc21 | 891
COC(=O)C1=CN(c2cccc(F)c2)c2cc(Br)ccc2S1(=O)=O | 928
COc1ccc(CNC(=O)c2nnn(Cc3nc(-c4ccc(C)cc4)oc3C)c2N)cc1OC | 935
O=C(Cn1c(=O)nc(-c2ccccc2)c2ccccc21)NCCc1ccccn1 | 590
CC(C)NC(=O)CCCN1C(=O)c2ccccc2Sc2ncccc21 | 674
CCOC(=O)C1C(=O)NC(SC)=C(C#N)C1c1ccccc1[N+](=O)[O-] (configuration not stated) | 778
CCc1ccc(NC(=O)N2CCC(n3cnc4cc(F)ccc4c3=O)CC2)cc1 | 867
CC1(C)Cc2cccc(OCC(=O)NCCc3c[nH]c4ccccc34)c2O1 | 850
Cc1noc(C)c1CNC(=O)c1cccc(OC(F)(F)F)c1 | 864
CCC1CN(C(=O)Nc2ccc(OC)cc2)c2ccccc2O1 (configuration not stated) | 968
COc1ccccc1-c1nc(Cn2nnc(-c3nc(-c4ccc(Cl)cc4)no3)c2C)c(C)o1 | 1220

Next, values leading:

RP-LC retention time [s] | SMILES
991 | Cc1ccc(S(=O)(=O)N2CC(=O)N(c3ccccc3C)C(C)(C(=O)NC3CCCC3)C2)cc1 (configuration not stated)
983 | COc1ccc(-c2ncc3c(n2)CCN(C(=O)c2ccccc2C(F)(F)F)C3)cc1
688 | CCc1nnc2c(=O)n(CC(=O)NCc3ccccc3)c3cccnc3n12
685 | Cn1c(C2CCN(C(=O)Nc3cccc(Cl)c3F)CC2)cc(=O)n2nccc12
1230 | Cc1ccc(Sc2nccnc2N2CCCC(C(=O)N3CCN(c4ccc(F)cc4)CC3)C2)cc1 (configuration not stated)
653 | CC1CCN(S(=O)(=O)c2ccc3nn(Cc4ccccc4F)c(=O)n3c2)CC1
877 | Cc1cccc(S(=O)(=O)N2CCCC(OCc3nc(C)no3)C2)c1 (configuration not stated)
578 | CCn1cc(S(=O)(=O)N2CCC(Cc3nc(-c4ccncc4)n[nH]3)C2)cn1 (configuration not stated)
794 | CCN(C(=O)C1CCN(S(=O)(=O)c2ccc3c(c2)NC(=O)CO3)CC1)c1ccccc1
869 | COCCNC(=O)c1csc(N2CCN(c3ccc(F)cc3)CC2)n1
1260 | O=S(=O)(c1ccc(-c2noc(-c3ccc(Cl)cc3)n2)cc1)N1CCCC1
563 | O=C(NCc1cccs1)C1CCN(CCc2c[nH]c3ncccc23)CC1
861 | O=S(=O)(c1ccc2nncn2c1)N(Cc1ccc(F)cc1)c1ccc(F)cc1
566 | CCN(CC)C(=O)N1CC(c2nc(-c3ccncc3)nn2C)C1
953 | CCOc1ccccc1C(=O)Nc1cccn2c(C3CCC3)nnc12
706 | O=c1ccc(N2CCCC(NS(=O)(=O)c3ccc(F)c(Cl)c3)C2)n[nH]1 (configuration not stated)
766 | CCOC(=O)c1cc(S(=O)(=O)N2CCN(c3ncccn3)CC2)[nH]n1
578 | COCCNC(=O)C1CCN(C(=O)c2cccn2-c2cccnc2)CC1
937 | Cc1cc(OCC(=O)N2CCCC2)nc(-c2ccc(Cl)cc2)n1
787 | CCc1ccccc1S(=O)(=O)NCC(c1cccnc1)c1cn(C)c2ccccc12 (configuration not stated)
1120 | CC1CCN(S(=O)(=O)c2ccc(-c3nnc(C(=O)NCc4ccc(Cl)cc4)o3)cc2)CC1
838 | CCc1nc(-c2csc(S(=O)(=O)N3CCC(C(=O)Nc4cccc(C)n4)CC3)c2)no1
641 | CSc1ccccc1C(=O)NCC1CCN(S(C)(=O)=O)CC1
896 | CCCN1C(=O)COc2ccc(-c3csc(NC(=O)C4CCCO4)n3)cc21 (configuration not stated)
691 | O=C(Nc1nnc(Cc2cccs2)o1)c1ccc(S(=O)(=O)N2CCOCC2)cc1
